In brackets after ≈: the same amount, converted by molar mass.
Legend:
HepG2 cells = experiment: Cytotoxicity by neutral red (NR) uptake; type: cell-based, human; conditions: HepG2, 24 h
Method: The evaluation of the cytotoxicity effects of QHSs was performed using hepatocellular carcinoma (HepG2) cells. […] The cells used for all experiments were taken between the 9th and 13th passages, to avoid phenotypic changes.
The cytotoxicity profile of the compounds under study was evaluated in HepG2 cells (2.5 × 10^5 cells/mL) seeded in 96-well plates. […] Control experiments were performed for viability endpoints by adding the vehicle (medium with 0.1% DMSO) instead of the compound solution.
In the NR uptake assay, following a 24 h incubation period with the test compounds, the cell culture medium was aspirated, and fresh medium containing 150 µL of the dye (at a concentration of […]) was added to the cells. […] After incubation, the cell culture medium was discarded, and a mixture of absolute ethanol and distilled water (1:1) containing 5% acetic acid was added to extract the dye accumulated within the lysosomes of viable cells. The absorbance at 540 nm was measured using a microplate reader (Synergy HTX Multi-Mode Reader—BioTek, Winooski, VT, USA).
For all assays, results are expressed as a percentage of the control (nontreated cells), taken as 100%.

S. aureus CECT 976 = tested on: S. aureus CECT 976; set-up: method as in Abreu et al. [44]; conditions: antibiotics, broth microdilution, ref Abreu et al. [44]; cited from earlier work
S. aureus SA1199B = conditions: antibiotics, ref Abreu et al. [44]; cited from earlier work

| SMILES | NR uptake (lysosomal activity), % of control (HepG2 cells; 2 µg/mL) | NR uptake (lysosomal activity), % of control (HepG2 cells; 16 µg/mL) | NR uptake (lysosomal activity), % of control (HepG2 cells; 32 µg/mL) | MIC (S. aureus CECT 976) | MIC (S. aureus SA1199B) |
| --- | --- | --- | --- | --- | --- |
| CC[C@H]1OC(=O)[C@H](C)[C@@H](O[C@H]2C[C@@](C)(OC)[C@@H](O)[C@H](C)O2)[C@H](C)[C@@H](O[C@@H]2O[C@H](C)C[C@H](N(C)C)[C@H]2O)[C@](C)(O)C[C@@H](C)C(=O)[C@H](C)[C@@H](O)[C@]1(C)O [[ERY], erythromycin, reference compound] | 108.4 ± 4.998% (ns) | 107.1 ± 7.642% (ns) | 110.2 ± 9.546% (ns) | 0.24 µg/mL (≈ 0.327 µM) | – |
| CN(C)[C@@H]1C(O)=C(C(N)=O)C(=O)[C@@]2(O)C(O)=C3C(=O)c4c(O)cccc4[C@@](C)(O)[C@H]3C[C@@H]12 [[TET], tetracycline] | – | – | – | 0.96 µg/mL (≈ 2.16 µM) | – |
| O=C(O)c1cn(C2CC2)c2cc(N3CCNCC3)c(F)cc2c1=O [[CIP], ciprofloxacin, reference compound] | 106.7 ± 11.16% (ns) | 96.82 ± 5.237% (ns) | 92.35 ± 6.807% (ns) | 1 µg/mL (≈ 3.02 µM) | 128 µg/mL (≈ 386 µM) |
| CC1(C)S[C@@H]2[C@H](NC(=O)[C@H](N)c3ccccc3)C(=O)N2[C@H]1C(=O)O [[AMP], ampicillin] | – | – | – | 1.5 µg/mL (≈ 4.29 µM) | – |
